# Measured values from patent US4579951A (priority 1984, dated 1986).
# Where a name gives a salt, the structure may show the parent alone.
# Test system: cholera toxin-induced intestinal fluid secretion
# Test: animal or person
# Format: in vivo, rat (female Charles River)
# Conditions: Rattus norvegicus, sc, read-out: Inhibitory Doses (ID50's)
row,SMILES,ED50 [mg/kg]
1,"Cc1c(O)cccc1NC1=NCCC1.Cl [Example 3, 3-[(3,4-dihydro-2H-pyrrol-5-yl)amino]-2-methylphenol hydrochloride]",8.3
2,"Oc1cccc(NC2=NCCC2)c1 [Example 5, 3-[3,4-dihydro-2H-pyrrol-5-yl)amino]phenol hydrochloride]",21.3
3,"Cc1cc(O)ccc1NC1=NCCC1 [Example 6, 4-[(3,4-dihydro-2H-pyrrol-5-yl)amino]-3-methylphenol 1/4 hydrate]",6.5
4,"Cc1c(NC2=NCCC2)cccc1OC(=O)C(C)(C)C [Example 10, 3-[(3,4-dihydro-2H-pyrrol-5-yl)amino]-2-methylphenyl 2,2-dimethylpropanoatehydrochloride 1/4 hydrate]",6.4
5,"Cc1cc(OC(=O)C(C)(C)C)ccc1NC1=NCCC1 [Example 11, 4-[(3,4-dihydro-2H-pyrrol-5-yl)amino]-3-methylphenyl 2,2-dimethylpropanoatehydrochloride]",9
6,"Cc1c(NC2=NCCC2)cccc1OC(=O)c1ccccc1 [Example 12, 3-[(3,4-dihydro-2H-pyrrol-5-yl)amino]-2-methylphenyl benzoate hydrobromide 1/4 hydrate]",5.7
7,"Cc1c(NC2=NCCC2)cccc1OC(=O)C1CCCCC1.Cl [Example 14, 3-[(3,4-dihydro-2H-pyrrol-5-yl)amino]-2-methylphenyl cyclohexanecarboxylate hydrochloride]",8.1
8,"COc1ccccc1C(=O)Oc1cccc(NC2=NCCC2)c1C.Cl [Example 15, 3-[(3,4-dihydro-2H-pyrrol-5-yl)amino]-2-methylphenyl 2-methoxybenzoate hydrochloride]",6.2
9,"CC(=O)Oc1cccc(NC2=NCCC2)c1C.Cl [Example 16, 3-[(3,4-dihydro-2H-pyrrol-5-yl)amino]-2-methylphenyl acetate hydrochloride]",10.1
10,"COc1ccc(C(=O)Oc2cccc(NC3=NCCC3)c2C)cc1 [Example 17, 3-[(3,4-dihydro-2H-pyrrol-5-yl)amino]-2-methylphenyl 4-methoxybenzoate hydrochloride 5/8 hydrate]",9.5
11,"Cc1ccccc1C(=O)Oc1cccc(NC2=NCCC2)c1C.Cl [Example 18, 3-[(3,4-dihydro-2H-pyrrol-5-yl)amino]-2-methylphenyl 2-methylbenzoate hydrochloride]",40.5
12,"Cc1ccc(C(=O)Oc2cccc(NC3=NCCC3)c2C)cc1.Cl [Example 19, 3-[(3,4-dihydro-2H-pyrrol-5-yl)amino]-2-methylphenyl 4-methylbenzoate hydrochloride]",5.9
13,"Cc1c(NC2=NCCC2)cccc1OC(=O)c1ccc(Cl)cc1 [Example 20, 3-[(3,4-dihydro-2H-pyrrol-5-yl)amino]-2-methylphenyl 4-chlorobenzoate hydrochloride 1/4 ethanol]",10.6
14,"Cc1c(NC2=NCCC2)cccc1OC(=O)c1ccc(Cl)c(Cl)c1.Cl [Example 21, 3-[(3,4-dihydro-2H-pyrrol-5-yl)amino]-2-methylphenyl 3,4-dichlorobenzoate hydrochloride]",5
15,"Cc1c(NC2=NCCC2)cccc1OC(=O)C1CC1.Cl [Example 22, 3-[(3,4-dihydro-2H-pyrrol-5-yl)amino]-2-methylphenyl cyclopropanecarboxylate hydrochloride]",6.8
16,"Cc1c(NC2=NCCC2)cccc1OC(=O)C12CC3CC(CC(C3)C1)C2 [Example 23, 3-[(3,4-dihydro-2H-pyrrol-5-yl)amino]-2-methylphenyl adamantane-1-carboxylate hydrochloride 1/4 hydrate]",9.1
17,"Cc1c(NC2=NCCC2)cccc1OC(=O)c1ccco1 [Example 24, 3-[(3,4-dihydro-2H-pyrrol-5-yl)amino]-2-methylphenyl furan-2-carboxylate hydrochloride 1/8 methanol]",8.3
18,COC(=O)c1ccc(NC2=NCCC2)c(C)c1 [reference compound],74

# Same assay, conditions: antisecretory antidiarrheal activity, qualitative statement
row,SMILES,activity in the cholera-induced intestinal fluid secretion assay (in words)
1,"CN=C(N)NC(=O)Nc1c(C)cccc1C [Lidamidine, reference compound]",active

# Same assay, conditions: subcutaneous route; class symbol; screening doses 10 and 20 mg/kg
row,SMILES,Inhibitory Doses (ID50's)
1,COc1ccc(NC2=NCCC2)c(C)c1 [reference compound],I
2,COc1cccc(NC2=NCCC2)c1C [reference compound],I
